The text below walks through data of article PMC5109050, “Structure and Function of Cyanobacterial DHDPS and DHDPR” (Scientific Reports, 2016).

One test addresses T1, Av-DHDPR (Trichormus variabilis, UniProt Q3MFY8).
T1 construct: gene dapB; synthetic codon-optimised dapB in pRSET-A, His-tagged, E. coli BL21-DE3 pLysS, IMAC; homotetramer 139 kDa; monomer of 287 residues in crystal
T1 sequence (Q3MFY8 2-278): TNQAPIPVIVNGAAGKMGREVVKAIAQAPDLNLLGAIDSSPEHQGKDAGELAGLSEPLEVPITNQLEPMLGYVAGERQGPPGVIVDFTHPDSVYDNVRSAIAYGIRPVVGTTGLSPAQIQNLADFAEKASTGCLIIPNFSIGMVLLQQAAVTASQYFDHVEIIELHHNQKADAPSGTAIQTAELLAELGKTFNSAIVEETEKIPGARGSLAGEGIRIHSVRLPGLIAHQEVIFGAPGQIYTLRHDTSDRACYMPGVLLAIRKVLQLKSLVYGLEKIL
Briefly: microscale thermophoresis, label-free, single-site fit. It is filed as binding. (MST reads how a fluorescent partner responds to local heating, with and without ligand.)

Test [1] deals with dihydrodipicolinate reductase from Anabaena variabilis (Anabaena variabilis) (UniProt N8WZH2). Briefly: AUC; sedimentation velocity, 20 °C, 40,000 rpm, absorbance at 230 nm, initial concentrations 0.1-7.0 μM (size-distribution analysis at 4.0 μM); single species, tetramer.
The target of test [2] is dihydrodipicolinate synthase from Anabaena variabilis (Anabaena variabilis) (UniProt N8VIX7). Described as above.
The target of another test is T2, Vv-DHDPS (Vitis vinifera, UniProt D7U7T8).
T2 construct: gene VIT_15s0048g00750; control enzyme; construct not described here
T2 sequence (D7U7T8 40-365 limits assumed): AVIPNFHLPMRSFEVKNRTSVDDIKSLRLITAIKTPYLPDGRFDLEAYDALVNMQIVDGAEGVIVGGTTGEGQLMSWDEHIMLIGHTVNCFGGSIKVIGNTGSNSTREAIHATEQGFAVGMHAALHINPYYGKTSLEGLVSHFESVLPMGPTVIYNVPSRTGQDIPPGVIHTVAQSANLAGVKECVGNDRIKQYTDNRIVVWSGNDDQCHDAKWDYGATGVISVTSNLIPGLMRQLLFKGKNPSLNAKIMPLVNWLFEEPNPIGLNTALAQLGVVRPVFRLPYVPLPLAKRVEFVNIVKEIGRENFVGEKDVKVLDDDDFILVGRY
Briefly: DHDPS-DHDPR coupled assay, dose response, four-parameter logistic. The class given is biochemical. The conditions noted are these: 30 °C; allosteric feedback inhibitor; control enzyme.

In a further test the target is T3, Ec-DHDPS (Escherichia coli, UniProt P0A6L2).
T3 construct: gene dapA; control enzyme; construct not described here
T3 sequence (P0A6L2 1-292): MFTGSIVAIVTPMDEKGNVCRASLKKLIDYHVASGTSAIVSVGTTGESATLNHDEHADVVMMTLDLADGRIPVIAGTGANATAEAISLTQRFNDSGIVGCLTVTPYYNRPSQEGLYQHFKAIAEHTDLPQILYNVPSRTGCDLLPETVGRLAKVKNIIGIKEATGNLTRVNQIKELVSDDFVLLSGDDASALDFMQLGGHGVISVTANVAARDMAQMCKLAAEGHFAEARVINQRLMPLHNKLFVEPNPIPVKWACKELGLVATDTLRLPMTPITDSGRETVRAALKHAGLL
The test is described as above. The class given is biochemical.

For test [3], the target named is T4, Av-DHDPS (Trichormus variabilis, UniProt Q3M723).
T4 construct: gene dapA; synthetic codon-optimised dapA in pRSET-A, His-tagged, E. coli BL21-DE3 pLysS, IMAC; homotetramer 147 kDa; monomer of 297 residues in crystal; active-site Lys164
T4 sequence (Q3M723 entry or part of it): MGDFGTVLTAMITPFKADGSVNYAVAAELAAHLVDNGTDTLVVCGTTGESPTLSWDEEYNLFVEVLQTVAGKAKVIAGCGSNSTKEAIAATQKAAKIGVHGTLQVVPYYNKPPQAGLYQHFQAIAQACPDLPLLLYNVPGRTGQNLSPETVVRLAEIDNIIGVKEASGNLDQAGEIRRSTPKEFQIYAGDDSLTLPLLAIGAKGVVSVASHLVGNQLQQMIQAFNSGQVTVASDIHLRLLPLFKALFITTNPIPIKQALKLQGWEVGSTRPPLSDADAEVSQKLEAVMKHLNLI
Described as above. The class given is biochemical. An excerpt: DHDPS-DHDPR coupled assay, dose response, four-parameter logistic on Av-DHDPS

The target in test [4] is T4, Av-DHDPS. Briefly: X-ray crystallography, […] Å. Conditions: covalent; bound to Lys164 in active site; crystallised with 10 mM pyruvate, pH 6.5. It is filed as binding.

What is called Kd is the constant that tells how readily two partners part at equilibrium. Read a high Kd as a looser complex. Turning to `O=C(O)c1cccc(C(=O)O)n1` [2,6-pyridinedicarboxylate], at Av-DHDPR, binding was characterised by a dissociation constant (Kd) of 100 ± 8.2 µM.

In general, stoichiometry N refers to a count of units in the complex or per binding partner. For “dihydrodipicolinate reductase from Anabaena variabilis (from UniProt N8WZH2 1-273) (enzyme)”, the stoichiometry N in test [1] was 4.

The molecule “dihydrodipicolinate synthase from Anabaena variabilis (from UniProt N8VIX7 1-299) (enzyme)” displayed a stoichiometry N in test [2] of 4.

What is called IC50 is the midpoint of a concentration-inhibition curve. Read a high IC50 as lower potency. For the molecule `NCCCC[C@H](N)C(=O)O` [(S)-lysine], the half-maximal inhibitory concentration (IC50) against Vv-DHDPS was found to be 30 µM; on Ec-DHDPS, 210 µM; on Av-DHDPS [3], 68 µM.

`CC(=O)C(=O)O` [pyruvate]: the “X-ray crystallography, 1.92 Å” value on Av-DHDPS [4] is reported as “Shown in purple is the substrate pyruvate bonded to Lys164 in Av-DHDPS”.
